The record followed here is patent US10456405B2, “Nitric oxide-releasing prodrug molecule of substituted quinazolines” (ZHEJIANG HUAHAI PHARMACEUTICAL CO., LTD, priority 2015, dated 2019).

The test system of one series is ApoA-I mRNA. The series can be described thus: Regulation of ApoA-I mRNA in HepG2 cells (real-time PCR). The arrangement: key: Active: When 100 μM of the tested compound allowed ApoA-I mRNA in HepG2 cells to increase more than 15%, then the test compound was known as an ApoA active compound. The series is classed as cell-based. Particulars: 100 μM, 48 h, relative to DMSO control. Here is the method:
Experiment 5. Regulation of the Tested Compounds on ApoA-I mRNA HepG2 cells were cultured for 24 h in a 24-well plate with 400 μl of MEM medium containing 0.5% (v/v) of fetal bovine serum. Then each of the tested compounds (100 μM) and the positive control RVX-208 (100 μM) were added. The cells were cultured for another 48 h. The medium was aspirated out. After washing with 200 μl of PBS, 85 μl of cell lysis solution was added into the cells in each well. The cells were incubated at room temperature for 5 to 10 min to be completely dissolved and detached. The mRNA was extracted from the cells with a kit. The extracted mRNA were used for a real-time fluorescence quantitative PCR detection with RNA Fluorescence (RiboGreen) Quantitation Assay Kit and ApoA-I mRNA Primer-Probe Mixture from the company of Applied Biosystems.
After obtaining the Ct values, the induction fold of each test compound relative to DMSO control was calculated. The induction fold was used to reflect the ability of regulating ApoA-I mRNA for the tested compounds. When 100 μM of the tested compound allowed ApoA-I mRNA in HepG2 cells to increase more than 15%, then the test compound was known as an ApoA active compound.
(Quantitative PCR measures a nucleic acid by following its amplification.)

A short description of series [1]: Release of HNO (headspace gas chromatography of nitrous oxide). Particulars: PBS pH 7.4, 37° C., argon, 90 min. On the procedure:
Experiment 2. Experimental study on the tested compounds for releasing HNO HNO rapidly dimerizes and dehydrates to produce nitrous oxide in aqueous solution. In the experiment of detecting HNO, gas chromatographic headspace analysis is generally used to determine the amount of the released nitrous oxide, thereby indirectly detect the level of releasing HNO of the compound.
Experimental procedure: Each of the tested compounds was prepared to 20 mg/mL of mother liquor with DMF. Prior to the start of the experiment, 50 μL of drug mother liquor was placed into a 20 mL headspace sample vial. The tested compound was diluted by adding 5 mL of PBS buffer with pH 7.4. The temperature of the resulting sample was kept at 37° C. under argon gas for 90 min. Then the top gas was extracted for gas chromatographic analysis of nitrous oxide by using Angeli's Salt as a positive compound in the experiment.

The nature of series [2]: Plasma stability in vitro, mouse plasma. The conditions noted are these: CD-1 mice plasma, 2 μM, 37° C., in % (unit assumed).
Method: (§1) Experimental method: The tested compounds (2 μM) were added into mouse or human plasma, and incubated at 37° C. Samples were taken at 0, 10, 30, 60 and 120 min respectively. The reaction was stopped by adding a stop agent. The mixture was sufficient shaken, and centrifuged at 4000 rpm for 10 min at 4° C. The supernatant was taken. The concentrations of the tested compounds and their metabolite (H130) in the supernatant were measured by LC-MS/MS.
A short description of series [3]: Plasma stability in vitro, human plasma. Particulars: for Content of Tested Substance (n = 2): human plasma, 2 μM, 37° C., in % (unit assumed).
Method: as §1
Another series deals with db/db mice. The series can be described thus: Serum NO and heart eNOS in db/db mice after oral gavage. The series is classed as in vivo. Particulars: blank = 100, oral gavage 150 mg/kg (isosorbide mononitrate 5 mg/kg), 1 h after administration (H101: 2 h). From the text: Experimental method: 25 eight-week-old db/db mice (strain: BKS.Cg−+Leprdb/+leprdb/JclSlac; grade: SPF; gender: male; source: Shanghai SLAC Laboratory Animal Co., Ltd.) were selected. 3 of them were selected as the blank administration control. 2 mice were used as the positive drug control (isosorbide mononitrate). The remaining 20 mice were randomly divided into 5 groups, 4 mice per group, which are H101 administration group, H111 administration group, H116 administration group, H119 administration group, and H130 administration group. The tested compounds of the positive drug control group and each administration group were dissolved in DMSO. Then PEG400 was added. The mixture was shaken and mixed thoroughly. At last, 10% of HP-β-CD was added. The mixture was shaken and mixed thoroughly. The ratio of each solvent was DMSO: PEG400:10% of HP-β-CD=5:67.5:27.5. The administration group was administered by oral gavage at the dose of 150 mg/kg. The positive drug control group was administered at the dose of 5 mg/kg. The mice in the H101 administration group were sacrificed at 2 h after the administration. The mice in the remaining administration groups were sacrificed at 1 h after the administration. The blood was collected respectively into 1.5 mL centrifuge tube, standing at room temperature for more than 30 min, and then centrifuged (3000 rpm, 10 min). The supernatant serum was aspirated, and stored at −80° C. for testing. After the blood was collected, the heart was cut with the thoracic aorta. Three parts of the heart were weighed and placed into cryovials, rapidly frozen in liquid nitrogen, and cryopreserved at −80° C. for testing. The aorta and aortic arch were weighed, rapidly frozen in liquid nitrogen, and cryopreserved at −80° C. for testing. The content of NO in the serum of the […] mice was determined by a total NO test kit (Beyotime). The content of NOS in the heart of the mice was determined with an NOS test kit (Beyotime). The content of eNOS was calculated by the difference between the measured values before and after adding the eNOS inhibitor L-NAME (Beyotime).

The subject of the next series is C57BL/6 mice. The series can be described thus: Serum NO level in C57 mice after oral gavage. In kind it is in vivo. Particulars: oral gavage 150 mg/kg (positive drug 5 mg/kg), FIG. 1. From the text:
Experimental method: 60 eight-week-old C57BL/6 mice (level: SPF; gender: male; source: Shanghai SLAC Laboratory Animal Co., Ltd.) were selected. […] were selected as the blank control. 12 mice were used as the positive drug control (isosorbide mononitrate). 12 mice were used as […] administration group. The other 32 mice were randomly divided into 4 groups, 8 mice per group, which are […] administration group, […] administration group, […] administration group, and […] administration group, respectively. The tested compounds of the positive drug control group and each administration group were dissolved in DMSO and then PEG400 was added thereto. The mixture was shaken and mixed thoroughly. At last, 10% of HP-β-CD was added. The mixture was shaken and mixed thoroughly. The ratio of each solvent was DMSO: PEG400:10% of HP-β-CD=5:67.5:27.5. The administration groups were administered by oral gavage at the dose of 150 mg/kg. The positive drug control group was administered at the dose of 5 mg/kg. The mice in each group were sacrificed by inhaling excess CO2 at 10 min, 30 min, 60 min, 120 min, 180 min, and 240 min after administration. The blood was collected into a 1.5 mL centrifuge tube, standing at room temperature for more than 30 min, and then centrifuged (3000 rpm, 10 min). The supernatant serum was aspirated, and stored at -80° C. for testing. After the blood was collected, the heart was cut with the thoracic aorta. Three parts of the heart were weighed and placed into cryovials, rapidly frozen in liquid nitrogen, and cryopreserved at -80° C. for testing. The aorta and aortic arch were weighed, rapidly frozen in liquid nitrogen, and cryopreserved at -80° C. for testing. The content of NO in the serum of C57BL/6 mice was determined by using the total NO test kit (Beyotime).

Series [4] in a line: Release of nitric oxide in vitro (Griess reagent, nitrite). Particulars: 10^−4 mol/L tested substance, phosphate buffer pH 7.4, cysteine 5 mmol/L, 37° C., 1 h; as nitrite. On the procedure:
Experiment 1. Experimental Study on the Tested Compounds for Releasing Nitric Oxide in vitro
Experimental Procedure: • (1) Preparation of Griess Reagent: 4 g of aminobenzenesulfonamide, 0.2 g of N-naphthyl ethylene diamine hydrochloride, and 10 mL of 85% phosphoric acid solution were taken to form a solution, which is diluted to 100 mL with distilled water. • (2) Plotting of the standard curve: a serie of standard solution of 0.01, 0.03, 0.05, 0.07, 0.09, 0.2, 0.4 μg/mL of nitrite nitrogen was prepared, 10 mL of each was taken to sufficiently mix with 2.5 mL of Griess reagent, standing at room temperature for 10 min, and its absorbance value at the wavelength of 540 nm was measured. The standard curve was plotted based on the resulting data. • (3) Measuring the amount of the released NO of the tested drug: all of the tested substances were dissolved in dimethylsulfoxide (1 mL) firstly. Then phosphate buffer (pH 7.4) was slowly added dropwise, and shaken. The drug solution was diluted to 50 mL, allowing the buffer solution to contain excess cysteine (5 mmol/L), and the final concentration of the tested substances being 10^−4 mol/L; the solution was incubated at 37° C. 2 mL of the reaction solution was taken to mix with 500 μl of Griess reagent at 1 h respectively, standing at room temperature for 10 min. The absorbance value of the mixture at 540 nm was measured. Isosorbide mononitrate was used as a positive control, and H130 was used as a negative control. The amount of the released NO was represented by the amount of its oxidation product, nitrite (NO2^−).
Background: Griess reagent forms a coloured azo dye with nitrite.

The conditions of series [5]: rat, in vivo.
Method: Experimental method: Intravenous injection solutions (the administration concentrations of the tested compounds were 1 mg/kg) and oral gastric perfusates (the administration concentrations of the test compounds were 5 mg/kg) of the test compounds were prepared, and intravenously and orally administered to three SD rats, respectively. The concentrations of the whole blood for H130 at 0.083 h, 0.25 h, 0.5 h, 1 h, 2 h, 4 h, 8 h, and 24 h after administration were determined by LC-MS/MS, respectively. The pharmacokinetic parameters were compared by a drug-time curve. Sample pretreatment: 150 μL of the whole blood to be tested was aspirated accurately. 600 μL of internal standard solution (diluted to 0.5 μg/mL with methanol) was added, sufficiently mixed by a vortex mixer, and centrifuged at 13000 r/min for 20 min at 4° C. 3 μL of the supernatant was taken into a sample vial.
Chromatographic conditions: C18 reversed-phase chromatographic column; gradient elution with mobile phase A: water/acetonitrile (v:v=95:5) with 0.025% of formic acid and 1 mM of ammonium acetate added thereto, and mobile phase B: acetonitrile/water (v:v=95:5) with 0.025% of formic acid and 1 mM of ammonium acetate added thereto.
For the next series, the system named is apoE−/− mice. The series can be described thus: apoE−/− mouse atherosclerosis model, high-fat diet 10 weeks. In kind it is in vivo. From the text: Experimental method: 36 eight-week-old male apoE-/- mice were selected and randomly divided into a blank administration group, an […] administration group, an […] administration group, an […] administration group, an […] administration group, and an […] administration group, 6 mice per group. The mice in each group were fed with high-fat diet for 10 weeks. At the beginning of the high-fat feeding, the mice in each group were administrated. Each tested compound was intragastric administered at the dose of 150 mg/kg twice a day. The blank administration group was given corresponding dose of saline. […] After the blood was taken, the serum, heart, and aorta were isolated. The levels of total cholesterol (TC), high density lipoprotein cholesterol (HDL-C), and low density lipoprotein cholesterol (LDL-C) in the serum of the mice in each group were measured by automatic biochemical analyzer. The ApoA1 expression level was detected with an ApoA1 kit. The content of NO in the serum of the mice was determined with a total NO test kit (Beyotime). The NOS activities of the heart, aorta, and serum were determined with an NOS test kit (Beyotime). The content of eNOS was calculated by the difference between the measured values determined before and after adding eNOS inhibitor L-NAME (Beyotime).

For series [6] the following is noted: 2 h.
Method: as §1
Setting [7] is: blank administration group = 100, 150 mg/kg twice a day, 10 weeks.
[8] abbreviates: serum, high-fat diet 10 weeks, intragastric 150 mg/kg twice a day.

The structures appear in SMILES notation. Where two headings read alike, the source gives them in different places.

`COc1cc(OC)c2c(=O)[nH]c(-c3cc(C)c(OCCOC(=O)ONS(=O)(=O)c4ccc(C)o4)c(C)c3)nc2c1` [Compound H104, N-((2-(4-(5,7-dimethoxy-4-oxo-3,4-dihydroquinazolin-2-yl)-2,6-dimethylphenoxy)ethoxy)carbonyloxy)-5-methylfuran-2-sulfonamide]: in the series with ApoA-I mRNA, the “Upregulation of Apoa-I Mrna Level” value was “Active”. In [1], the “Molar Quantities of N2O/Sample” value is reported as 23.6%. Further, the “Content of Tested Substance (n = 2)” value is listed as 100.0 in series [2] (0 min); 0.5 in [2] (10 min); 0.0 in [2] (30 min); 0.0 in [2] (60 min); 0.3 in series [2] (120 min); 100.0 in [3] (0 min). For the same molecule, the “Content of Tested Substance (n = 2)” value in [3] (10 min) was 99.5; in series [3] (30 min), 88.7; in [3] (60 min) it was 81.1; in series [3] (120 min), 75.8. The “stability in human plasma” value in series [3] (within 2 h) is on record as “good stability”.
Turning to `O=[N+]([O-])O[C@@H]1CO[C@H]2[C@@H]1OC[C@@H]2O` [Isosorbide Mononitrate, Isosorbide mononitrate, reference compound], in the series on db/db mice, the “Heart eNOS” value is recorded as 169% and the “Serum NO” value was determined as 136%. Moreover, the “time after administration at which serum NO level rose to its maximum, then decreased” value with C57BL/6 mice was determined as 2 h. The “Amount of Released No” value in series [4] amounted to 3.31 µM.
As for `COc1cc(OC)c2c(=O)[nH]c(-c3cc(C)c(OCCOC(=O)CCC(=O)ONS(=O)(=O)c4cccc(S(C)(=O)=O)c4)c(C)c3)nc2c1` [Compound H116], in the series on db/db mice, the “Heart eNOS” value is 159% and the “Serum NO” value is listed as 147%. The “Upregulation of Apoa-I Mrna Level” value in the series on ApoA-I mRNA was “Active”. For the same molecule, in series [5], the “release of prototype compound H130 after administration” value was “can be rapidly released”. The “AUCRatio (Dosage Calibration)” value in series [5] (iv, 1 mg/kg) turned out to be 51.6%. Further, in series [5] (po, 5 mg/kg), the “AUCRatio (Dosage Calibration)” value came out at 45.3%. The “Molar Quantities of N2O/Sample” value in [1] was determined as 15.3%. For the same molecule, in the series with apoE−/− mice (setting [7]), the “Aorta eNOS” value is given as 136%, the ApoA1 is on record as 128%, the “Heart eNOS” value came to 148% and the “Serum NO” value came out at 138%. For the same molecule, in the series on apoE−/− mice (setting [7]), the “Serum eNOS” value stood at 123%. In the series on apoE−/− mice (setting [8]), this molecule had an HDL-C of 74 ± 11 mg/dL, an LDL-C of 315 ± 31 mg/dL and a TC of 1123 ± 73 mg/dL. Besides, the “stability in human plasma” value in series [6] is reported as “good stability”.
